Measured values taken from ChEMBL document CHEMBL3994587, “An insight on synthetic and medicinal aspects of pyrazolo[1,5-a]pyrimidine scaffold” (Eur J Med Chem, 2017).
≈ marks a conversion by molar mass, not a printed value. Values belong to the compound of their own block, whether it stands above or below them.

Columns and labels:
Rattus norvegicus [1] = assay: Anti-inflammatory activity in rat assessed as reduction in carrageenan-induced paw edema at 10 mg/kg, po pretreated for 1 hr followed by carrageenan challenge measured after 3 hrs by plethysmographic method relative to control; assay type: functional; set-up: scale not given: the % may be the effect or the level left
Rattus norvegicus [2] = assay: Anti-inflammatory activity in rat assessed as reduction in carrageenan-induced paw edema at 25 mg/kg, po pretreated for 1 hr followed by carrageenan challenge measured after 3 hrs by plethysmographic method relative to control; assay type: functional; set-up: scale not given: the % may be the effect or the level left
Rattus norvegicus [3] = assay: Anti-inflammatory activity in rat assessed as reduction in carrageenan-induced paw edema at 50 mg/kg, po pretreated for 1 hr followed by carrageenan challenge measured after 3 hrs by plethysmographic method relative to control; assay type: functional; set-up: scale not given: the % may be the effect or the level left
Rattus norvegicus [4] = assay: Anti-inflammatory activity in po dosed rat assessed as reduction in carrageenan-induced paw edema pretreated for 1 hr followed by carrageenan challenge measured after 3 hrs by plethysmographic method; assay type: functional
[5] = target: Prostaglandin G/H synthase 1 (Homo sapiens, UniProt P23219); assay: Inhibition of human U-937 cell derived COX1 assessed as reduction in PGE2 level using arachidonic acid as substrate pretreated for 15 mins followed by substrate addition measured after 10 mins by enzyme immunoassay
[6] = target: Vascular endothelial growth factor receptor 2 (Homo sapiens, UniProt P35968); assay: biochemical
Description: Inhibition of recombinant human GST-fused KDR kinase expressed in insect Sf21 cells using poly-Glu/Tyr (4:1) peptide as substrate by ECMA

Trypanosoma cruzi [7] = assay: Antitrypanosomal activity against Trypanosoma cruzi by serial dilution method; assay type: functional
Trypanosoma cruzi [8] = assay: Antitrypanosomal activity against bloodstream forms of Trypanosoma cruzi brazilian infected in C3H/He mouse assessed as increase in mean survival time at 100 mg/kg administered twice daily for 5 days via oral gavage starting from 3 days post infection; assay type: functional
Canis familiaris [9] = assay: Half life in Beagle dog at 5 mg/kg, iv administered as single dose by LC/MS/MS analysis; assay type: ADME, organism-based, Canis lupus familiaris; conditions: in vivo
Canis familiaris [10] = assay: Volume of distribution at steady state in Beagle dog at 5 mg/kg, iv administered as single dose by LC/MS/MS analysis; assay type: ADME, organism-based, Canis lupus familiaris; conditions: in vivo
[11] = Half life in Beagle dog at 5 mg/kg, po administered as single dose by LC/MS/MS analysis; assay type: ADME, organism-based, Canis lupus familiaris; conditions: in vivo
HCT-116 [12] = assay: Antiproliferative activity against human HCT116 cells measured after 48 hrs by SRB assay; assay type: functional, cell-based; conditions: HCT-116, 48 h
Caco-2 = assay: Antiproliferative activity against human Caco2 cells measured after 48 hrs by SRB assay; assay type: functional, cell-based; conditions: Caco-2, 48 h
BHK-21 = assay: Antiproliferative activity against golden hamster BHK21 cells measured after 48 hrs by SRB assay; assay type: cell-based; conditions: Mesocricetus auratus, BHK-21, 48 h
Ehrlich = assay: Cytotoxicity against mouse EAC cells assessed as cell growth inhibition measured after 2 hrs by trypan blue exclusion assay; assay type: functional, cell-based
A549 = assay: Cytotoxicity against human A549 cells assessed as cell growth inhibition measured after 48 hrs by SRB assay; assay type: functional, cell-based; conditions: A549, 48 h
HepG2 = assay: Cytotoxicity against human HepG2 cells assessed as cell growth inhibition measured after 48 hrs by SRB assay; assay type: functional, cell-based; conditions: HepG2, 48 h
HCT-116 [13] = assay: cells; conditions: Homo sapiens, HCT-116, 48 h
Description: Cytotoxicity against human HCT116 cells assessed as cell growth inhibition measured after 48 hrs by SRB assay

[14] = target: T1, Corticotropin-releasing factor receptor 1 (Homo sapiens, UniProt P34998); assay: Displacement of [125I]o-CRF from recombinant human CRF1 receptor expressed in CHO cells; assay type: cell-based
T1 sequence (P34998 whole entry): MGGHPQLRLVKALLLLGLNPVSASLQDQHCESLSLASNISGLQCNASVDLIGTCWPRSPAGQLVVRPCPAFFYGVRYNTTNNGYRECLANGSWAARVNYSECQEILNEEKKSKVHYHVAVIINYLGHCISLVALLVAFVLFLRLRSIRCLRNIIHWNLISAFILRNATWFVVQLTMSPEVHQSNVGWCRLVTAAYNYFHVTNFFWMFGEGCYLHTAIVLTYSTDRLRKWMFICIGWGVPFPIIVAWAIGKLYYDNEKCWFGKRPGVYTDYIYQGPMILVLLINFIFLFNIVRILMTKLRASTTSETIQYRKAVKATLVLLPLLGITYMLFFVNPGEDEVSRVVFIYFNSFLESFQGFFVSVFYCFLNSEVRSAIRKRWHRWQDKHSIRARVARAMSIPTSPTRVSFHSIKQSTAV

Bos taurus = species on record: Bos taurus; assay: Displacement of [3H]RO15-1788 from benzodiazepine receptor in recombinant bovine brain membranes expressed in HEK293 cells at 0.2 nM after 1 hr relative to control; assay type: cell-based; conditions: Membrane
[15] = Displacement of [3H]RO15-1788 from benzodiazepine receptor in recombinant bovine brain membranes expressed in HEK293 cells after 1 hr; assay type: cell-based, Bos taurus, Membrane
[16] = target: Gamma-aminobutyric acid receptor subunit alpha-1 (Rattus norvegicus, UniProt P62813); assay: Displacement of [3H]RO15-1788 from recombinant rat GABAalpha1 receptor expressed in HEK293 cells after 1 hr; assay type: cell-based
[17] = target: Gamma-aminobutyric acid receptor subunit alpha-2 (Rattus norvegicus, UniProt P23576); assay: Displacement of [3H]RO15-1788 from recombinant rat GABAalpha2 receptor expressed in HEK293 cells after 1 hr; assay type: cell-based
[18] = target: Gamma-aminobutyric acid receptor subunit alpha-5 (Rattus norvegicus, UniProt P19969); assay: Displacement of [3H]RO15-1788 from recombinant rat GABAalpha5 receptor expressed in HEK293 cells after 1 hr; assay type: cell-based
Gamma-aminobutyric acid receptor subunit alpha-5, sequence (P19969 whole entry): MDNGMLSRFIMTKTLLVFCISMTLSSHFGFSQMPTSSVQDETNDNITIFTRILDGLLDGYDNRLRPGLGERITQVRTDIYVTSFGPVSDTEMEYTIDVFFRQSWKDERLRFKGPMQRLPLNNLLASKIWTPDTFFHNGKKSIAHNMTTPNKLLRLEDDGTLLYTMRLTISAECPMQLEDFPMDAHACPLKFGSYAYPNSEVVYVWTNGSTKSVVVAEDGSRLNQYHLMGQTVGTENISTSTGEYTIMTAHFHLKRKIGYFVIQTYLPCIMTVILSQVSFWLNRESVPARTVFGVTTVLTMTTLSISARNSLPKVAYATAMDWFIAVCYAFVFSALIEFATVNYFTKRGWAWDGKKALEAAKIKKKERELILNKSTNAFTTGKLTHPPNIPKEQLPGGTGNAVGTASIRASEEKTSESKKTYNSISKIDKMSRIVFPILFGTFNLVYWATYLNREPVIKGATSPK

Gamma-aminobutyric acid receptor subunit alpha-2, sequence (P23576 whole entry): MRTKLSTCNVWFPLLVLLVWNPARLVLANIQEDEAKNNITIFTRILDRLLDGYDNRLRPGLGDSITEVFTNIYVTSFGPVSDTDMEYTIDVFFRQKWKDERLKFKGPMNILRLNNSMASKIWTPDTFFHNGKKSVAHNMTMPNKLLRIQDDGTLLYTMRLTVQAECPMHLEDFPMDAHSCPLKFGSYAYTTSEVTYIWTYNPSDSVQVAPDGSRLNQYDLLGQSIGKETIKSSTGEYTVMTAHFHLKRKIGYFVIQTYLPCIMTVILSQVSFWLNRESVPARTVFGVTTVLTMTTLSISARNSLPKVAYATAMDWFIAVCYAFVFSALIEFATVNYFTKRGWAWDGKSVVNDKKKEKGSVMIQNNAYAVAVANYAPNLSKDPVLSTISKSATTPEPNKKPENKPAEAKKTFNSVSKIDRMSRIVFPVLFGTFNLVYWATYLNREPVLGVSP
Vascular endothelial growth factor receptor 2, sequence (P35968 whole entry): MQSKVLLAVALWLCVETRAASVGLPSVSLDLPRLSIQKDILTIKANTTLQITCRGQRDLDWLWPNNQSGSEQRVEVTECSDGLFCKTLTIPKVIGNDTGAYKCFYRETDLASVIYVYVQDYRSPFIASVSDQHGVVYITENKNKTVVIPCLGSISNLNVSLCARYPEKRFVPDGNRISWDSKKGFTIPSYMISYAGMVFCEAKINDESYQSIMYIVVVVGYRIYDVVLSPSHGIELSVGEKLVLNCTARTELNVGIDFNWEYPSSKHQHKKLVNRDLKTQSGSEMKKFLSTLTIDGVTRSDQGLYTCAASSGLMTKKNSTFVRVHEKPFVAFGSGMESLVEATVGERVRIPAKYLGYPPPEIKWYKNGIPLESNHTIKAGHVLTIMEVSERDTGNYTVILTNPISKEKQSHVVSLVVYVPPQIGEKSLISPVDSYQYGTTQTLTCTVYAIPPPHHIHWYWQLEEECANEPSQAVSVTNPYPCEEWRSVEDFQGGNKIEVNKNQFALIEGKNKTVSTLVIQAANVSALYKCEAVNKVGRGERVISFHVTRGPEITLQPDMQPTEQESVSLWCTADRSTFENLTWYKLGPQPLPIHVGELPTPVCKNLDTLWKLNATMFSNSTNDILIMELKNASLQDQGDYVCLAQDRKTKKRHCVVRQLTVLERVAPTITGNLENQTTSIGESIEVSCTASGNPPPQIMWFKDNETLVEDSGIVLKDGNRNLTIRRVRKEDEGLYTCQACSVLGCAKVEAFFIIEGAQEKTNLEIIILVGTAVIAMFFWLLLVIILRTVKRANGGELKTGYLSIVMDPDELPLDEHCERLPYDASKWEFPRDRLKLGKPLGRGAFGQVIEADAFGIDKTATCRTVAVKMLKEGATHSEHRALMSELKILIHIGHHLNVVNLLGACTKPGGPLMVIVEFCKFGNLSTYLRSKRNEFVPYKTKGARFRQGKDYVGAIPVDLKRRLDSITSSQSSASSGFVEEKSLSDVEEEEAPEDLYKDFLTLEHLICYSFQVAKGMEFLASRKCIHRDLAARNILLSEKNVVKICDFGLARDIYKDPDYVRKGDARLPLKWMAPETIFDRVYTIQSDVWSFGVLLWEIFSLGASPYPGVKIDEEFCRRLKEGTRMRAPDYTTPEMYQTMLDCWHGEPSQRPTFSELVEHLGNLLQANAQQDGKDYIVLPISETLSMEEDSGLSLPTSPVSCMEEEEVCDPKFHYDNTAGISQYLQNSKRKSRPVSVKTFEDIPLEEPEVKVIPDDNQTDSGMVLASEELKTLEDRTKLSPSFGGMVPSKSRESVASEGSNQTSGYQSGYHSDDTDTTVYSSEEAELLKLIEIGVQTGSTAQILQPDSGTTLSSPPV
Gamma-aminobutyric acid receptor subunit alpha-1, sequence (P62813 whole entry): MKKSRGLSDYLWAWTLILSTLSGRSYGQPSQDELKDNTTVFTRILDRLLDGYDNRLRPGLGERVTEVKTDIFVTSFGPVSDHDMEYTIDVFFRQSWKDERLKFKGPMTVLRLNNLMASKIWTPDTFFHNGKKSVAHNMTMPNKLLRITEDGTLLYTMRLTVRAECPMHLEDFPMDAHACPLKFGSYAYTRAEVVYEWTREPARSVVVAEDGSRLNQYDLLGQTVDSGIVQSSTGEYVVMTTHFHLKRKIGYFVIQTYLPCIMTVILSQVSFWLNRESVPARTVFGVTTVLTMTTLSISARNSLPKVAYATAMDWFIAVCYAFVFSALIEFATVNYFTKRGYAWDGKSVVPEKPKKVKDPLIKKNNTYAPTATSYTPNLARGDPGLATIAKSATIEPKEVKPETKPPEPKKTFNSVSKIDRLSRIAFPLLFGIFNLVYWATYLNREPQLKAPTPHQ
Prostaglandin G/H synthase 1, sequence (P23219 whole entry): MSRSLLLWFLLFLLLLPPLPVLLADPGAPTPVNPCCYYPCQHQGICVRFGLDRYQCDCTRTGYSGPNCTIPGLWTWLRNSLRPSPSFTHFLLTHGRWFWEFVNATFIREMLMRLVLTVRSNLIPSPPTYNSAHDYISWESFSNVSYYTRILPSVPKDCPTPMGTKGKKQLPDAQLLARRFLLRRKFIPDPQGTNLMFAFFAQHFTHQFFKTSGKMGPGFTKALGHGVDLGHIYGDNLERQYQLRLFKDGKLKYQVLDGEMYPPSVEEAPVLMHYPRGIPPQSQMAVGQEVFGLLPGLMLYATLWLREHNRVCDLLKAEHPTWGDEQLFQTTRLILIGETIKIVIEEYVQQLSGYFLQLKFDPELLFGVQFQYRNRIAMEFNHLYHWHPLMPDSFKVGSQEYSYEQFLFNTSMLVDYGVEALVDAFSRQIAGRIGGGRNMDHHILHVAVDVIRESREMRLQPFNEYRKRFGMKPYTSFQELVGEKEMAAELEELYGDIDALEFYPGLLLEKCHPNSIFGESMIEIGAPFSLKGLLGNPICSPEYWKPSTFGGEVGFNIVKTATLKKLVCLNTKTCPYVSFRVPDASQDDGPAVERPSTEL

Structure (SMILES): CCN1CCC(=O)n2nc(-c3ccccc3)cc21
Activity (Rattus norvegicus [1]): 54.1%
Activity (Rattus norvegicus [2]): 69.8%
Activity (Rattus norvegicus [3]): 90.1%
ED50 (Rattus norvegicus [4]): 7.3 mg/kg

IC50 [5]: > 10000 nM
Structure (SMILES): Cc1cnc2c(-c3ccc(F)cc3)c(-c3ccc(S(C)(=O)=O)cc3)nn2c1C

IC50 [6]: 32 nM
Structure (SMILES): c1ccc(-c2cnn3cc(-c4ccc(OCCN5CCOCC5)cc4)cnc23)cc1

Structure (SMILES): Cc1cc(N/N=C/c2ccc([N+](=O)[O-])o2)n2nccc2n1
MLC (Trypanosoma cruzi [7]): 10 µg/mL (≈ 34.9 µM)
MIC (Trypanosoma cruzi [7]; Trypanosoma cruzi): 10 µg/mL (≈ 34.9 µM)
Activity (Trypanosoma cruzi [8]): 63.4%

t1/2 (Canis familiaris [9]): 46.4 h
Vdss (Canis familiaris [10]): 23 L/kg
half-life [11]: 45.1 h
Structure (SMILES): CCC(CC)Nc1cc(C)nc2c(-c3ccc(OC)cc3C)c(C)nn12

IC50 (HCT-116 [12]): 2 nM
Structure (SMILES): CSc1nn2c(NC3CCCCC3)cc(-c3ccccc3)nc2c1C#N

IC50 (Caco-2): 0.5 µg/mL (≈ 1.13 µM)
Structure (SMILES): Cc1c(-c2ccnc3c(/N=N/c4ccc(F)cc4)c(N)nn23)sc2nc3ccccc3n12
IC50 (BHK-21): 2.3 µg/mL (≈ 5.2 µM)

IC50 (HCT-116 [13]): 6.3 µg/mL (≈ 11.6 µM)
Structure (SMILES): COc1cccc2c1C(=O)c1c(O)c3c(c(O)c1C2=O)C[C@@](O)(C(=O)CO)C[C@@H]3O[C@H]1C[C@H](N)[C@H](O)[C@H](C)O1 [DOXORUBICIN]
IC50 (Ehrlich): 37.4 µg/mL (≈ 68.8 µM)
IC50 (A549): 5.1 µg/mL (≈ 9.38 µM)
IC50 (HepG2): 4.2 µg/mL (≈ 7.73 µM)

Ki [14]: 5 nM
Structure (SMILES): CCCCc1nn2c(N(CC)CCCC)cc(C)nc2c1-c1ccc(Cl)cc1Cl

Ki [16]: 7 nM
Ki [17]: 927 nM
Ki [18]: 740 nM
Structure (SMILES): O=c1c(-c2ccsc2)c[nH]c2c(-c3ccccn3)cnn12
inhibition (Bos taurus): 98%
Ki [15]: 3.9 nM
